Measured values reported in PMC12072338, “Allosteric Modulation of GCase Enhances Lysosomal Activity and Reduces ER Stress in GCase-Related Disorders” (International Journal of Molecular Sciences, 2025).
Where two headings read alike, the source gives them in different places.

Target: T1, rhGCase (Cerezyme) (Homo sapiens, UniProt P04062, R534H)
T1 construct: Human full-length wild-type GCase protein (Cerezyme®, Genzyme, Naarden, Netherlands); purchased Genzyme, Naarden, Netherlands
T1 sequence (P04062 40-536 R534H): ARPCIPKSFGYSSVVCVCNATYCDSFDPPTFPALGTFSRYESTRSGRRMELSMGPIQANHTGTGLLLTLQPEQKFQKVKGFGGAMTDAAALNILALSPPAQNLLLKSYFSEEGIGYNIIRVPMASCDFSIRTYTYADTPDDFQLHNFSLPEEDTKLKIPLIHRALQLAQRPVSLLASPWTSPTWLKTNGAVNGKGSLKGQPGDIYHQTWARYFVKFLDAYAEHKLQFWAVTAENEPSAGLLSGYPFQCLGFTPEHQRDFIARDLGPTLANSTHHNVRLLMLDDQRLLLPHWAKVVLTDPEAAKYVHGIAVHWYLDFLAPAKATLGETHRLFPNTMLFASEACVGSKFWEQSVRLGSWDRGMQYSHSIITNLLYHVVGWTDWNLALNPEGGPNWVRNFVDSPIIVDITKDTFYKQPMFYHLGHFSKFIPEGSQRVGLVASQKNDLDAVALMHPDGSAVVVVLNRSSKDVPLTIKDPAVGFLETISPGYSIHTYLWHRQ
Assay: nanoDSF thermal stability of rhGCase
Format: binding
Description: The stabilizing effects of GT-02287 and GT-02329 on GCase were assessed by nanoDSF. rhGCase protein (Cerezyme®, Genzyme, Naarden, Netherlands) was prepared at 0.1 mg/mL in two buffers: buffer 1 (10 mmol/L Citric Acid, 20 mmol/L Na2HPO4, pH 7.0) and buffer 2 (50 mmol/L Histidine, 150 mmol/L NaCl, pH 5.0). DMSO was added to a final concentration of 2%.
Samples were loaded into nanoDSF standard capillaries and analyzed using the Prometheus NT.48 instrument (NanoTemper Technologies, Munich, Germany). The thermal unfolding of GCase was monitored by tracking intrinsic fluorescence changes in tryptophan and tyrosine residues as the temperature increased from 20 °C to 95 °C at 2 °C/min. Each condition was run in duplicate at 25 μM and 100 μM compound concentrations. Melting temperatures (Tm) were determined from the fluorescence curves, and ΔTm shifts between compound-treated and control samples were calculated. The significance of Tm shifts was assessed using two criteria: an absolute ΔTm shift greater than 1.0 °C (instrumental criterion) and an absolute ΔTm standard deviation of 0.2 °C or less (statistical criterion).

OC[C@H]1CNC[C@@H](O)[C@@H]1O [IFG, isofagomine]
Effect on protein thermal stability at pH 5.0 (pH 5.0): demonstrated stabilization
ΔTm at 100 µM (pH 5.0, 100 µM compound, mean ± SD of two experiments, read-out: ΔTm at pH 5.0 and 100 µM): 3 °C
ΔTm at 25 µM (pH 7.0, 25 µM compound, mean ± SD of two experiments): 9.9 ± 0.2 °C
ΔTm at 100 µM (pH 7.0, 100 µM compound, mean ± SD of two experiments, read-out: ΔTm at pH 7.0 and 100 µM): 11.5 °C
